Source: patent publication US20040115666A1, “Method for identifying compounds modulating reverse cholesterol transport” (priority 2001, published 2004)

What was measured:
[1] = system: apo A-I expression in HepG2 cells; assay: apo A-I mRNA expression in HepG2 cells (Northern blot); assay type: cell-based, human
Method: HepG2 cells were grown in DMEM medium supplemented with 10% fetal calf serum, penicillin/streptomycin, sodium pyruvate and nonessential amino acids and incubated at 37° C in a humidified 5% CO2/95% air atmosphere. […] Total RNA was extracted as previously described (Chomczynski et al., Anal. Biochem., 1987, 162 (1): 156-9) and quantified by Northern Blot hybridization (Peters, J. Biol. Chem., 1997, 272 (43): 27307-12) using human apo A-I and 28S as probes (Peters, J. Biol. Chem., 1997, 272 (43): 27307-12).
HepG2 cells were grown in DMEM medium supplemented with 10% fetal calf serum, penicillin/streptomycin, sodium pyruvate and nonessential amino acids and incubated at 37° C. in a humidified 5% CO2/95% air atmosphere. Total RNA was extracted as previously described (Chomczynski et al., Anal. Biochem., 1987, 162 (1): 156-9) and quantified by Northern Blot hybridization (Peters, J. Biol. Chem., 1997, 272 (43): 27307-12) using human apo A-I and 28S as probes (Peters, J. Biol. Chem., 1997, 272 (43): 27307-12).
(§1) HepG2 were cotransfected as described in example 5. Cellular mRNA was obtained as described above in example 2.

human apo A-I promoter = assay: luciferase reporter under human apo A-I promoter fragments in HepG2 cells overexpressing hFXR; assay type: cell-based
Method: HepG2 cells were cotransfected by lipofection with 300 ng of pCDNA3-hFXR vector for FXR expression, 300 ng of pSG5-mRXRα vector and 1 μg of the indicated reporter vectors enabling expression of the luciferase reporter gene under the control of fragments −254/+91, −192/+91 and −40/+91 of the apo A-I promoter. […] Total DNA was adjusted to 2 μg using plasmid pBKS+. After a 3 hour transfection, cells were incubated in the culture medium with bile acids at the indicated concentrations for 36 hours.
HepG2 cells were transfected by lipofection with 300 ng of pCDNA3-hFXR vector for expression of hFXR and 1 μg of the indicated reporter vectors allowing expression of a luciferase reporter gene under the control wild type or mutated fragment −254/+91 of the human apo A-I gene promoter, under the control of the herpes simplex virus thymidine kinase promoter or under the control of three copies of site A or site C of the human apo A-I gene cloned upstream of the herpes simplex virus thymidine kinase promoter. […] The construct containing fragment −254/+91 of the apo A-I promoter in which site A is mutated was obtained by directed mutagenesis of site A, in the wild type construct, using the Quick Change Site directed mutagenesis kit (Stratagene, La Jolla, Calif., USA), oligonucleotide 5′-[…]-3′ (SEQ ID NO: 4) and the complementary oligonucleotide. The construct containing fragment −254/+91 of the apo A-I promoter in which site C is mutated was obtained by directed mutagenesis of site C, in the wild type construct, using the Quick Change Site directed mutagenesis kit (Stratagene, La Jolla, Calif., USA), oligonucleotide 5′-[…]-3′ (SEQ ID NO: 3) and the complementary oligonucleotide. The construct containing fragment −254/+91 of the apo A-I promoter in which sites A and C are mutated was obtained by directed mutagenesis of site A, in the Cmut construct, using the Quick Change Site directed mutagenesis kit (Stratagene, La Jolla, Calif., USA), oligonucleotide 5′-[…]-3′ (SEQ ID NO: 4) and the complementary oligonucleotide. The construct denoted TkpGL3 containing the herpes simplex virus thymidine kinase promoter cloned upstream of a luciferase reporter gene has been previously described (Raspé et al., J. Biol. Chem., 2001, 276 (4): 2865-2871). The C3TK construct containing three copies of site C of the human apo A-I promoter cloned upstream of the herpes simplex virus thymidine kinase promoter and the luciferase reporter gene was obtained by oriented cloning of three copies of the double-stranded oligonucleotide corresponding to the wild type site C sequence (SEQ ID NO: 1) into the SmaI site of vector TkpGL3. The A3TK construct containing three copies of site A of the human apo A-I promoter cloned upstream of the herpes simplex virus thymidine kinase promoter and the luciferase reporter gene was obtained by oriented cloning of three copies of the double-stranded oligonucleotide corresponding to the wild type site A sequence (SEQ ID NO: 2) into the SmaI site of vector TkpGL3. Total DNA was adjusted to 2 μg using plasmid pBKS+. After a 3 hour transfection, cells were incubated in the culture medium with the bile acids at the indicated concentrations for 36 hours.
as §1

[2] = system: site C of the human apo A-I promoter; assay: luciferase reporter C3TK (three copies of site C upstream of TK promoter) in HepG2 cells overexpressing hFXR; assay type: cell-based
Method: (§2) HepG2 cells were transfected by lipofection with 300 ng of pCDNA3-hFXR vector for expression of hFXR and 1 μg of the indicated reporter vectors allowing expression of a luciferase reporter gene under the control wild type or mutated fragment −254/+91 of the human apo A-I gene promoter, under the control of the herpes simplex virus thymidine kinase promoter or under the control of three copies of site A or site C of the human apo A-I gene cloned upstream of the herpes simplex virus thymidine kinase promoter. […] The construct containing fragment −254/+91 of the apo A-I promoter in which site A is mutated was obtained by directed mutagenesis of site A, in the wild type construct, using the Quick Change Site directed mutagenesis kit (Stratagene, La Jolla, Calif., USA), oligonucleotide 5′-[…]-3′ (SEQ ID NO: 4) and the complementary oligonucleotide. The construct containing fragment −254/+91 of the apo A-I promoter in which site C is mutated was obtained by directed mutagenesis of site C, in the wild type construct, using the Quick Change Site directed mutagenesis kit (Stratagene, La Jolla, Calif., USA), oligonucleotide 5′-[…]-3′ (SEQ ID NO: 3) and the complementary oligonucleotide. […]

[3] = system: site A of the human apo A-I promoter; assay: luciferase reporter A3TK (three copies of site A upstream of TK promoter) in HepG2 cells overexpressing hFXR; assay type: cell-based
Method: as §2

[4] = system: herpes simplex virus thymidine kinase promoter; assay: luciferase reporter TkpGL3 (TK promoter only) in HepG2 cells overexpressing hFXR; assay type: cell-based, human; settings: overexpression of hFXR, CDCA
Method: as §2

[5] = system: FXR (hFXR) (Homo sapiens); assay: cell_activity; settings: 1 µM GW4064, HepG2
[6] = system: mice transgenic for the human apo A-I gene; settings: diet rich in TCA 0.5% m/m, one week
Excerpt: Effect of TCA on Plasma Concentrations of Cholesterol and Apo A-I and on Hepatic Expression of apo A-I in Mice Transgenic for the Human apo A-I Gene (FIG. 1)
Example 1 illustrates the effect of a diet rich in taurocholate on serum cholesterol and human apo A-I levels and on lipid profile and hepatic expression of human apo A-I in transgenic mice expressing the apo A-I gene in a C57BL genetic background.
Ten transgenic mice expressing the apo A-I gene in a C57BL genetic background (IFFA-CREDO, L'Arbresle, France) were genotyped by PCR and divided into two groups of five animals. The first group received a normal diet for one week while the second was given a diet rich in TCA (taurocholic acid, 0.5% m/m). Blood was collected after a 12 hour fast by retroorbital puncture under barbital anesthesia. Serum samples were collected and stored at −20° C. pending analysis. After one week of dietary treatment, animals were sacrificed and liver specimens were collected and frozen for analysis. Human apo A-I levels in serum were measured before and after the diet as previously described (Peters, J. Biol. Chem., 1997, 272 (43): 27307-12). Serum cholesterol and lipid profiles after FPLC were measured as previously described (Raspé et al., J. Lipid Res., 1999, 40 (11): 2099-2110). Total RNA was extracted from liver specimens as previously described (Chomczynski et al., Anal. Biochem., 1987, 162 (1): 156-9) and quantified by Northern Blot hybridization (Peters, 1997) using human apo A-I and 28S as probes (Peters, J. Biol. Chem., 1997, 272 (43): 27307-12).

FXR = molecular target: T1, FXR (Homo sapiens, UniProt Q96RI1); settings: FIG. 4
T1 sequence (Q96RI1 1-472 isoform Q96RI1-2): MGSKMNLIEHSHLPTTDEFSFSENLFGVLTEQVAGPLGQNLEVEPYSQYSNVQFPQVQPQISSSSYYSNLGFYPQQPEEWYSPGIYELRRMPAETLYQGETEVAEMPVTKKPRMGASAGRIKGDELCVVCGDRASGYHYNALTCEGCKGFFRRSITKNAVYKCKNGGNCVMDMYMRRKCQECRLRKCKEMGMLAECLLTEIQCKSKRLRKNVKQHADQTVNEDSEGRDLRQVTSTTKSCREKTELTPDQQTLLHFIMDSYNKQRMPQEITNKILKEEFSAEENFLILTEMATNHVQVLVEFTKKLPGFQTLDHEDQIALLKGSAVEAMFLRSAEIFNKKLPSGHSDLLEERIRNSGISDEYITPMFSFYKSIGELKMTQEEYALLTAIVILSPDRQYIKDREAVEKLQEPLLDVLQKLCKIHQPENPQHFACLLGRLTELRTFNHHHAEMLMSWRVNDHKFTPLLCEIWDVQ

[7] = overexpression of hFXR and mRXRα, CDCA, 36 hours
[8] = overexpression of hFXR, panel A
[9] = hFXR overexpression, 1 μM GW4064, in words

Molecule: C[C@H](CCC(=O)O)[C@H]1CC[C@H]2[C@@H]3[C@H](O)C[C@@H]4C[C@H](O)CC[C@]4(C)[C@H]3CC[C@]12C [CDCA, chenodeoxycholic acid]
- apo A-I expression in HepG2 cells ([1]; 50 μM): considerably reduces
- effect on apo A-I expression after actinomycin D preincubation ([1]; CDCA 50 μM, 12-h preincubation with actinomycin D (5 g/ml)): offset
- apo A-I expression in HepG2 cells ([1]; increasing concentrations): reduce
- activity of fragment −40/+91 (minimal promoter) of the apo A-I gene promoter (human apo A-I promoter; [7]): not
- activity of fragment −192/+91 of the apo A-I gene promoter (human apo A-I promoter; [7]): represses
- activity of fragment −254/+91 of the apo A-I gene promoter (human apo A-I promoter; [7]): represses
- activity of fragment −254/+91 with site A mutated (A mut construct) (human apo A-I promoter; overexpression of hFXR, CDCA): represses
- activity of wild type fragment −254/+91 (wt construct) (human apo A-I promoter; overexpression of hFXR, CDCA): represses
- activity of fragment −254/+91 with site C mutated (C mut construct) (human apo A-I promoter; [8]): transcriptional activation
- activity of fragment −254/+91 with sites A and C mutated (AC mut construct) (human apo A-I promoter; [8]): loss of response
- activity of construct C3TK ([2]; overexpression of hFXR, CDCA): represses
- activity of construct A3TK ([3]; overexpression of hFXR, CDCA): activated
- activity of construct TkpGL3 [4]: not affected

Molecule: apo A-I promoter site A wt
- activity (% of control luciferase) ([5]; A3TK, three copies, activation): 1120

Molecule: apo A-I promoter -254/+91
- activity (% of control luciferase) ([5]; construct ABC, repression): 56.8

Molecule: C[C@H](CCC(=O)NCCS(=O)(=O)O)[C@H]1CC[C@H]2[C@@H]3[C@H](O)C[C@@H]4C[C@H](O)CC[C@]4(C)[C@H]3C[C@H](O)[C@]12C [TCA, taurocholic acid]
- hepatic expression of apo A-I [6]: reduces
- plasma concentrations of apo A-I [6]: reduces
- plasma concentrations of cholesterol [6]: reduces
- apo A-I expression in HepG2 cells ([1]; increasing concentrations): reduce
- FXR activation (FXR): activate

Molecule: CC(C)c1onc(-c2c(Cl)cccc2Cl)c1COc1ccc(/C=C/c2cccc(C(=O)O)c2)c(Cl)c1 [GW4064]
- apo A-I expression in HepG2 cells ([1]; GW4064, in words): markedly reduces
- activity of fragment −254/+91 of the human apo A-I promoter (construct ABC) (human apo A-I promoter; [9]): represses
- activity of construct C3TK [2, 9]: represses
- activity of construct A3TK ([3]; hFXR overexpression, GW4064, in words): activated

Molecule: apo A-I promoter site C wt
- activity (% of control luciferase) ([5]; C3TK, three copies, repression): 61.8
